The NIST ThermoML archive (doi:10.1021/je400803f)
Numbers after ± are expanded uncertainties.

Assay: xn = mol fraction of the nth substance listed
Conditions: 101 kPa, Liquid, Vibrating tube method

CCCCN(C=O)CCCC [N,N-dibutylformamide] + CCCC[N+]1(C)CCCC1.FC(F)(F)C(F)(F)[P-](F)(F)(F)(C(F)(F)C(F)(F)F)C(F)(F)C(F)(F)F
mass density [kg/m3]
Conditions	293.15 K	298.15 K	303.15 K	308.15 K	313.15 K	318.15 K	323.15 K
x2 = 0.0351	928.01 ± 0.26	923.97 ± 0.26	919.87 ± 0.26	915.81 ± 0.26	911.67 ± 0.26	907.43 ± 0.26	903.16 ± 0.26
x2 = 0.0697	972.58 ± 0.26	968.41 ± 0.26	964.18 ± 0.26	960.06 ± 0.26	955.82 ± 0.26	951.45 ± 0.26	947.14 ± 0.26
x2 = 0.0998	1008.79 ± 0.26	1004.57 ± 0.26	1000.33 ± 0.26	996.06 ± 0.26	991.74 ± 0.26	987.31 ± 0.26	982.93 ± 0.26
x2 = 0.1498	1064.17 ± 0.3	1059.81 ± 0.3	1055.39 ± 0.29	1051.03 ± 0.29	1046.54 ± 0.29	1042.09 ± 0.28	1037.62 ± 0.28
x2 = 0.1994	1114.29 ± 0.33	1109.89 ± 0.33	1105.41 ± 0.33	1100.9 ± 0.32	1096.39 ± 0.32	1091.73 ± 0.32	1087.01 ± 0.31
x2 = 0.2999	1204.19 ± 0.41	1199.58 ± 0.4	1194.89 ± 0.4	1190.17 ± 0.39	1185.45 ± 0.39	1180.61 ± 0.39	1175.67 ± 0.38
x2 = 0.4003	1281.29 ± 0.47	1276.52 ± 0.47	1271.65 ± 0.46	1266.78 ± 0.46	1261.89 ± 0.45	1256.88 ± 0.45	1251.71 ± 0.45
x2 = 0.499	1347.44 ± 0.53	1342.55 ± 0.53	1337.52 ± 0.52	1332.49 ± 0.52	1327.52 ± 0.51	1322.34 ± 0.51	1317.03 ± 0.5
x2 = 0.5993	1406.59 ± 0.58	1401.54 ± 0.58	1396.37 ± 0.57	1391.2 ± 0.57	1386.12 ± 0.56	1380.87 ± 0.56	1375.47 ± 0.56
x2 = 0.6799	1449.07 ± 0.62	1443.87 ± 0.62	1438.69 ± 0.61	1433.45 ± 0.61	1428.23 ± 0.6	1422.89 ± 0.6	1417.48 ± 0.59
x2 = 0.7754	1494.51 ± 0.67	1489.34 ± 0.66	1483.96 ± 0.66	1478.61 ± 0.65	1473.39 ± 0.65	1467.94 ± 0.64	1462.42 ± 0.64
x2 = 0.8021	1506.51 ± 0.68	1501.2 ± 0.67	1495.89 ± 0.67	1490.51 ± 0.66	1485.21 ± 0.66	1479.75 ± 0.65	1474.28 ± 0.65
x2 = 0.9011	1548.52 ± 0.72	1543.24 ± 0.72	1537.81 ± 0.71	1532.31 ± 0.7	1526.89 ± 0.7	1521.4 ± 0.69	1515.91 ± 0.69
x2 = 0.949	1568.08 ± 0.74	1562.74 ± 0.74	1557.33 ± 0.73	1551.79 ± 0.72	1546.31 ± 0.72	1540.77 ± 0.71	1535.23 ± 0.71
